# Results: patent US20100280021A1, “PYRIDOPYRIMIDINE PROTEIN TYROSINE PHOSPHATASE INHIBITORS” (priority 2005, published 2010)
# Biological target: T1, Human PTP1B (1-321) (Homo sapiens, UniProt P18031)
# T1 construct: Human PTP1B (1-321) was cloned from a human cDNA library; made in house; host or cells: E. coli
# T1 sequence (P18031 1-321): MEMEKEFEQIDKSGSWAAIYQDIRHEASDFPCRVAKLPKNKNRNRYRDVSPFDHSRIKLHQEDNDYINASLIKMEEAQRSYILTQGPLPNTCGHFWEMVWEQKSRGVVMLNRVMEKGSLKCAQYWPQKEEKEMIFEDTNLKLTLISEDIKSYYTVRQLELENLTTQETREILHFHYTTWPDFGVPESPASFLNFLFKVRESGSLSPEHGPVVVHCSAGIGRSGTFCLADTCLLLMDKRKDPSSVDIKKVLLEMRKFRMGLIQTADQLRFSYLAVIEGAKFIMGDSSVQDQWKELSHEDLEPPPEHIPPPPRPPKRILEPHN
# Test: In vitro inhibition of PTP1B (PTPase assays: Malachite Green phosphopeptide method or DiFMUP method)
# Format: biochemical
# Conditions: PTP1B inhibitory activity
# Method: Human PTP1B (1-321) was cloned from a human cDNA library using conventional molecular biology techniques. The cDNA sequence was identical to the published human PTP1B sequence (Accession number M33689). The protein was expressed and purified from E. coli as described by Barford D. et. al J. Mol. Biol (1994) 239, 726-730.
# The measurement of PTPase activity was carried out using one of two methods:
# The first method for the measurement of PTP1B inhibitory activity a tyrosine phosphorylated peptide based on the amino acid sequence of insulin receptor tyrosine autophosphorylation site 1146 (TRDI(pY)E) was used as substrate. The reaction conditions were as follows:
# PTP1B (0.5-2 nM) was incubated with compound for 15 min in buffer containing 37.5 mM Bis-Tris buffer pH 6.2, 140 mMNaCl, 0.05% BSA and 2 mM DTT. The reaction was started by the addition of 50 μM substrate. After 20 min at room temperature (22-25° C.), the reaction was stopped with KOH and the amount of free phosphate measured using Malachite Green as previously described (Harder et al. 1994 Biochem J. 298; 395).
# The second method was used for the measurement of general PTPase inhibitory activity across a panel of PTPases the substrate (6,8-difluoro-4-methylumbelliferyl phosphate (DiFMUP; from Molecular Probes) was used at the Km for each enzyme. The buffer conditions were identical as in the Malachite Green assay. The reaction was stopped with KOH. In this case the dephosphoryated product becomes fluorescent and the fluorescense read (Excitiation: […]/Emmission: 460 nM).
# The following Table lists IC50 results for several of the above exemplified compounds: […]
row,IC50 [nM],SMILES
1,1660,"CNc1nc(N)nc2nc(-c3ccccc3C)ccc12 [Example 1, N4-Methyl-7-o-tolyl-pyrido[2,3-d]pyrimidine-2,4-diamine]"
2,510,"CNc1nc(N)nc2nc(-c3c(Cl)cccc3Cl)ccc12 [Example 3, 7-(2,6-Dichloro-phenyl)-N4-methyl-pyrido[2,3-d]pyrimidine-2,4-diamine]"
3,1410,"CNc1nc(N)nc2nc(C3CCCCC3)ccc12 [Example 9, 7-Cyclohexyl-N4-methyl-pyrido[2,3-d]pyrimidine-2,4-diamine]"
4,3570,"CNc1nc(N)nc2nc(-c3cccs3)ccc12 [Example 13, N4-Methyl-7-thiophen-2-yl-pyrido[2,3-d]pyrimidine-2,4-diamine]"
5,2560,"CNc1nc(N)nc2nc(-c3ccccc3)c(-c3ccccc3)cc12 [Example 14, N4-Methyl-6,7-diphenyl-pyrido[2,3-d]pyrimidine-2,4-diamine]"
6,4220,"CNc1nc(N)nc2nc3c(cc12)CCc1ccccc1-3 [Example 27, N8-Methyl-5,6-dihydro-benzo[h]pyrimido[4,5-b]quinoline-8,10-diamine]"
7,1150,"CNc1nc(N)nc2nc(-c3cccc4ccccc34)ccc12 [Example 28, N4-Methyl-7-naphthalen-1-yl-pyrido[2,3-d]pyrimidine-2,4-diamine]"
8,250,"CNc1nc(N)nc2nc(-c3ccccc3C(F)(F)F)c(C(=O)O)cc12 [Example 56, 2-Amino-4-methylamino-7-(2-trifluoromethyl-phenyl)-pyrido[2,3-d]pyrimidine-6-carboxylic acid]"
9,10800,"CNc1nc(N)nc2nc(C3(c4ccccc4)CCCCC3)ccc12 [Example 59, N4-Methyl-7-(1-phenyl-cyclohexyl)-pyrido[2,3-d]pyrimidine-2,4-diamine]"
10,170,"CNc1nc(N)nc2nc(-c3c(Oc4ccccc4)cccc3C(F)(F)F)ccc12 [Example 80, N4-Methyl-7-(2-phenoxy-6-trifluoromethyl-phenyl)-pyrido[2,3-d]pyrimidine-2,4-diamine]"
11,2330,"CNc1nc(N)nc2nc(-c3c(F)cccc3N3CCOCC3)ccc12 [Example 92, 7-(2-Fluoro-6-morpholino-4-yl-phenyl)-N4-methyl-pyrido[2,3-d]pyrimidine-2,4-diamine]"
12,800,"CNc1nc(N)nc2nc(-c3c(N4C(C)CCC4C)cccc3C(F)(F)F)ccc12 (stereo not drawn) [Example 107, 7-[2-(2,5-Dimethyl-pyrrolidin-1-yl)-6-trifluoromethyl-phenyl]-N4-methyl-pyrido[2,3-d]pyrimidine-2,4-diamine]"
13,300,"CNc1nc(N)nc2nc(-c3c(N4CCN(C(=O)c5ccco5)CC4)cccc3C(F)(F)F)ccc12 [Example 116, {4-[2-(2-Amino-4-methylamino-pyrido[2,3-d]pyrimidin-7-yl)-3-trifluoromethyl-phenyl]-piperazin-1-yl}-furan-2-yl-methanone]"
14,2050,"CNc1nc(N)nc2nc(-c3c(N4CCC(Cc5ccccc5)CC4)cccc3C(F)(F)F)ccc12 [Example 121, 7-[2-(4-Benzyl-piperidin-1-yl)-6-trifluoromethyl-phenyl]-N4-methyl-pyrido[2,3-d]pyrimidine-2,4-diamine]"
15,52400,"CNc1nc(N)nc2nc(-c3ccccc3)cc(-c3ccccc3)c12 [Example 139, N*4*-Methyl-5,7-diphenyl-pyrido[2,3-d]pyrimidine-2,4-diamine]"
